Converted amounts (≈) assume the structure as drawn. Bridge positions count the residues as written; N and C are the ends. Square brackets hold non-standard residues; d marks the D form. Triazole bridges read from a SMILES are 1,4-linked. Peptide text beside a SMILES is read from it. dLys(N3) = [N-]=[N+]=NCCCC[C@@H](N)C(=O)O; Lys(N3) = [N-]=[N+]=NCCCC[C@H](N)C(=O)O; dPra = C#CC[C@@H](N)C(=O)O; Pra = C#CC[C@H](N)C(=O)O
Experiments:
[1] = system: B. megaterium Bm11; format: cell-based, Bacillus megaterium
Experimental: (§1) The antimicrobial activity of peptides 9–26 was assessed against a range of reference bacterial strains such as S. aureus ATCC 25923, Staphylococcus epidermidis ATCC 12228, Bacillus megaterium Bm11, E. coli ATCC 25922, P. aeruginosa ATCC 27853, and A. baumannii ATCC 19606 by the broth microdilution assay to determine the minimal growth inhibitory concentration (MIC, Table 1).[59] First, we evaluated the effects produced by the lactam bridge between Lys and Glu residues placed at different positions along the peptide sequence of reference 9. […] When the i,i+7 cyclization strategy was applied (20–23), a dramatic decrease of bacterial inhibition activity was observed. Specifically, the peptides 20, 22, and 23 only affected the microbial growth of the Gram-positive B. megaterium Bm11, at 12.5 μM. […] Peptide 25, which differs from 9 by the presence of an olefin bridge rather than lactam one, dramatically lost the activity (MIC > 100 μM) vs both Gram-positive and Gram-negative strains.
(§2) The determination of MICs was conducted as previously reported.[61] Aliquots of 50 μL of bacterial culture appropriately diluted were added to each well of a 96-well plate to reach a final cell density of 1 × 10^6 CFU/mL and a final peptide concentration ranging from 100 to 0.78 μM (final volume 100 μL).

[2] = system: S. aureus ATCC 25923; format: cell-based, Staphylococcus aureus
Experimental: as §1, §2

[3] = system: E. coli ATCC 25922; format: cell-based, Escherichia coli
Experimental: as §1, §2

[4] = system: S. epidermidis ATCC 12228; format: cell-based, Staphylococcus epidermidis
Experimental: as §1, §2

[5] = system: P. aeruginosa ATCC 27853; format: cell-based, Pseudomonas aeruginosa
Experimental: as §1, §2

[6] = system: A. baumannii ATCC 19606; format: cell-based, Acinetobacter baumannii
Experimental: as §1, §2

[7] = circular dichroism; settings: water; pH ns; 25 °C; 50 uM

SMILES | MIC B. megaterium Bm11 [1] | MIC S. aureus ATCC 25923 [2] | MIC E. coli ATCC 25922 [3] | MIC S. epidermidis ATCC 12228 [4] | MIC P. aeruginosa ATCC 27853 [5] | MIC A. baumannii ATCC 19606 [6] | helicity [7]
CC[C@H](C)[C@@H]1NC(=O)[C@H](CCCNC(=N)N)NC(=O)CNC(=O)[C@H](NC(=O)[C@H](Cc2ccccc2)NC(=O)[C@H](CCCCN)NC(=O)[C@H](CO)NC(=O)[C@H](Cc2ccccc2)NC(=O)[C@H](Cc2c[nH]c3ccccc23)NC(=O)[C@@H]2CCCN2C(=O)[C@@H](NC(=O)[C@@H](N)Cc2ccccc2)C(C)C)Cc2cn(nn2)CCCC[C@@H](C(N)=O)NC1=O [compound 15] (H-FVPWFSKF[dPra]GRI[Lys(N3)]-NH2; triazole 9-13) | 25 µM (≈ 40.8 µg/mL) | >100 µM | >100 µM | >100 µM | >100 µM | 100 µM (≈ 163 µg/mL) | –
CC[C@H](C)[C@H](NC(=O)[C@H](CCCNC(=N)N)NC(=O)[C@@H]1CCCCn2cc(nn2)C[C@H](NC(=O)[C@H](Cc2ccccc2)NC(=O)[C@H](Cc2c[nH]c3ccccc23)NC(=O)[C@@H]2CCCN2C(=O)[C@@H](NC(=O)[C@@H](N)Cc2ccccc2)C(C)C)C(=O)N[C@@H](CCCCN)C(=O)N[C@@H](Cc2ccccc2)C(=O)N[C@H](CC(C)C)C(=O)N1)C(=O)N[C@@H](CC(C)C)C(N)=O | – | – | – | – | – | – | 6%
CC[C@H](C)[C@@H]1NC(=O)[C@H](CCCNC(=N)N)NC(=O)CNC(=O)[C@@H](CC(C)C)NC(=O)[C@H](Cc2ccccc2)NC(=O)[C@H](CCCCN)NC(=O)[C@@H](NC(=O)[C@H](Cc2ccccc2)NC(=O)[C@H](Cc2c[nH]c3ccccc23)NC(=O)[C@@H]2CCCN2C(=O)[C@@H](NC(=O)[C@@H](N)Cc2ccccc2)C(C)C)Cc2cn(nn2)CCCC[C@@H](C(N)=O)NC1=O [compound 22] (H-FVPWF[Pra]KF[dL]GRI[Lys(N3)]-NH2; triazole 6-13) | 12.5 µM (≈ 20.7 µg/mL) | >100 µM | >100 µM | >100 µM | >100 µM | 100 µM (≈ 166 µg/mL) | –
CC[C@H](C)[C@@H]1NC(=O)[C@H](CCCNC(=N)N)NC(=O)CNC(=O)[C@H](NC(=O)[C@H](Cc2ccccc2)NC(=O)[C@H](CCCCN)NC(=O)[C@H](CO)NC(=O)[C@H](Cc2ccccc2)NC(=O)[C@H](Cc2c[nH]c3ccccc23)NC(=O)[C@@H]2CCCN2C(=O)[C@@H](NC(=O)[C@@H](N)Cc2ccccc2)C(C)C)CCCCNC(=O)CC[C@@H](C(N)=O)NC1=O [compound 10] | 50 µM (≈ 81.1 µg/mL) | >100 µM | >100 µM | >100 µM | >100 µM | >100 µM | –
CC(C)C[C@H](NC(=O)[C@@H]1CCCCn2cc(nn2)C[C@H](NC(=O)[C@H](CCCCN)NC(=O)[C@H](CO)NC(=O)[C@H](Cc2ccccc2)NC(=O)[C@H](Cc2c[nH]c3ccccc23)NC(=O)[C@@H]2CCCN2C(=O)[C@@H](NC(=O)[C@@H](N)Cc2ccccc2)C(C)C)C(=O)N[C@H](CC(C)C)C(=O)NCC(=O)N[C@@H](CCCNC(=N)N)C(=O)N1)C(N)=O [compound 16] (H-FVPWFSK[Pra][dL]GR[Lys(N3)]L-NH2; triazole 8-12) | 25 µM (≈ 39.9 µg/mL) | >100 µM | 50 µM (≈ 79.9 µg/mL) | >100 µM | >100 µM | 25 µM (≈ 39.9 µg/mL) | –
CC[C@H](C)[C@@H]1NC(=O)[C@H](CCCNC(=N)N)NC(=O)CNC(=O)[C@@H](CC(C)C)NC(=O)[C@H](Cc2ccccc2)NC(=O)[C@H](CCCCN)NC(=O)[C@@H](NC(=O)[C@H](Cc2ccccc2)NC(=O)[C@H](Cc2c[nH]c3ccccc23)NC(=O)[C@@H]2CCCN2C(=O)[C@@H](NC(=O)[C@@H](N)Cc2ccccc2)C(C)C)CCCCNC(=O)CC[C@@H](C(N)=O)NC1=O [compound 20] (H-FVPWFKKF[dL]GRIE-NH2; lactam 6-13) | 12.5 µM (≈ 20.6 µg/mL) | >100 µM | >100 µM | >100 µM | >100 µM | >100 µM | –

Further lines, with some results ahead:

MIC B. megaterium Bm11 [1] | MIC S. aureus ATCC 25923 [2] | MIC E. coli ATCC 25922 [3] | MIC S. epidermidis ATCC 12228 [4] | MIC P. aeruginosa ATCC 27853 [5] | MIC A. baumannii ATCC 19606 [6] | SMILES | helicity [7]
1.56 µM (≈ 2.6 µg/mL) | 100 µM (≈ 167 µg/mL) | 25 µM (≈ 41.7 µg/mL) | 6.25 µM (≈ 10.4 µg/mL) | >100 µM | 25 µM (≈ 41.7 µg/mL) | CC[C@H](C)[C@H](NC(=O)[C@H](CCCNC(=N)N)NC(=O)[C@@H]1CSSC[C@H](NC(=O)[C@H](Cc2ccccc2)NC(=O)[C@H](Cc2c[nH]c3ccccc23)NC(=O)[C@@H]2CCCN2C(=O)[C@@H](NC(=O)[C@@H](N)Cc2ccccc2)C(C)C)C(=O)N[C@@H](CCCCN)C(=O)N[C@@H](Cc2ccccc2)C(=O)N[C@H](CC(C)C)C(=O)N1)C(=O)N[C@@H](CC(C)C)C(N)=O [compound 26] (H-FVPWFCKF[dL]CRIL-NH2; disulfide 6-10) | 8%
>100 µM | >100 µM | >100 µM | >100 µM | >100 µM | >100 µM | CC[C@H](C)[C@H](NC(=O)[C@H](CCCNC(=N)N)NC(=O)CNC(=O)[C@@H](CC(C)C)NC(=O)[C@@H]1CCC(=O)NCCCC[C@H](NC(=O)[C@@H]2CCCN2C(=O)[C@@H](NC(=O)[C@@H](N)Cc2ccccc2)C(C)C)C(=O)N[C@@H](Cc2ccccc2)C(=O)N[C@@H](CO)C(=O)N[C@@H](CCCCN)C(=O)N1)C(=O)N[C@@H](CC(C)C)C(N)=O [compound 14] (H-FVPKFSKE[dL]GRIL-NH2; lactam 4-8) | –
100 µM (≈ 159 µg/mL) | >100 µM | >100 µM | >100 µM | >100 µM | >100 µM | CC(C)C[C@H](NC(=O)[C@@H]1CCC(=O)NCCCC[C@H](NC(=O)[C@H](Cc2c[nH]c3ccccc23)NC(=O)[C@@H]2CCCN2C(=O)[C@@H](NC(=O)[C@@H](N)Cc2ccccc2)C(C)C)C(=O)N[C@@H](CO)C(=O)N[C@@H](CCCCN)C(=O)N[C@@H](Cc2ccccc2)C(=O)N[C@H](CC(C)C)C(=O)NCC(=O)N[C@@H](CCCNC(=N)N)C(=O)N1)C(N)=O [compound 21] (H-FVPWKSKF[dL]GREL-NH2; lactam 5-12) | –
6.25 µM (≈ 9.99 µg/mL) | >100 µM | 100 µM (≈ 160 µg/mL) | >100 µM | >100 µM | 100 µM (≈ 160 µg/mL) | CC[C@H](C)[C@H](NC(=O)[C@H](CCCNC(=N)N)NC(=O)CNC(=O)[C@H]1CCCCn2cc(nn2)C[C@H](NC(=O)[C@H](Cc2c[nH]c3ccccc23)NC(=O)[C@@H]2CCCN2C(=O)[C@@H](NC(=O)[C@@H](N)Cc2ccccc2)C(C)C)C(=O)N[C@@H](CO)C(=O)N[C@@H](CCCCN)C(=O)N[C@@H](Cc2ccccc2)C(=O)N1)C(=O)N[C@@H](CC(C)C)C(N)=O [compound 18] (H-FVPW[Pra]SKF[dLys(N3)]GRIL-NH2; triazole 5-9) | –
50 µM (≈ 79.4 µg/mL) | >100 µM | >100 µM | >100 µM | >100 µM | >100 µM | CC(C)C[C@H](NC(=O)[C@@H]1CCC(=O)NCCCC[C@H](NC(=O)[C@H](CCCCN)NC(=O)[C@H](CO)NC(=O)[C@H](Cc2ccccc2)NC(=O)[C@H](Cc2c[nH]c3ccccc23)NC(=O)[C@@H]2CCCN2C(=O)[C@@H](NC(=O)[C@@H](N)Cc2ccccc2)C(C)C)C(=O)N[C@H](CC(C)C)C(=O)NCC(=O)N[C@@H](CCCNC(=N)N)C(=O)N1)C(N)=O [compound 11] (H-FVPWFSKK[dL]GREL-NH2; lactam 8-12) | –
12.5 µM (≈ 19.1 µg/mL) | >100 µM | >100 µM | >100 µM | >100 µM | >100 µM | CC[C@H](C)[C@H](NC(=O)[C@H](CCCNC(=N)N)NC(=O)CNC(=O)[C@@H](CC(C)C)NC(=O)[C@@H]1CCCCn2cc(nn2)C[C@H](NC(=O)[C@@H]2CCCN2C(=O)[C@@H](NC(=O)[C@@H](N)Cc2ccccc2)C(C)C)C(=O)N[C@@H](Cc2ccccc2)C(=O)N[C@@H](CO)C(=O)N[C@@H](CCCCN)C(=O)N1)C(=O)N[C@@H](CC(C)C)C(N)=O [compound 19] (H-FVP[Pra]FSK[Lys(N3)][dL]GRIL-NH2; triazole 4-8) | –
100 µM (≈ 159 µg/mL) | >100 µM | >100 µM | >100 µM | >100 µM | >100 µM | CC[C@H](C)[C@H](NC(=O)[C@H](CCCNC(=N)N)NC(=O)CNC(=O)[C@H]1CCC(=O)NCCCC[C@H](NC(=O)[C@H](Cc2c[nH]c3ccccc23)NC(=O)[C@@H]2CCCN2C(=O)[C@@H](NC(=O)[C@@H](N)Cc2ccccc2)C(C)C)C(=O)N[C@@H](CO)C(=O)N[C@@H](CCCCN)C(=O)N[C@@H](Cc2ccccc2)C(=O)N1)C(=O)N[C@@H](CC(C)C)C(N)=O [compound 13] (H-FVPWKSKF[dE]GRIL-NH2; lactam 5-9) | –

From publication PMC8389922, “First-in-Class Cyclic Temporin L Analogue: Design, Synthesis, and Antimicrobial Assessment” (Journal of Medicinal Chemistry, 2021)
